From the NIST ThermoML archive (doi:10.1016/j.jct.2016.12.034)

Conditions: Crystal; for vapor or sublimation pressure: Transpiration method

CC(=O)Nc1ccc(/C=N/NC(N)=S)cc1 [Thioacetazone]
Conditions | Normal melting temperature [°C] | vapor or sublimation pressure [kPa]
404.15 K | – | 1.89e-05
406.15 K | – | 2.23e-05
408.15 K | – | 2.81e-05
410.15 K | – | 3.67e-05
412.15 K | – | 4.46e-05
415.15 K | – | 6.04e-05
417.15 K | – | 7.03e-05
420.15 K | – | 0.0001125
423.15 K | – | 0.0001414
425.15 K | – | 0.0001651
427.15 K | – | 0.0002376
429.15 K | – | 0.0002851
DTA | 229.00 | –
